For assay [1], the target named is T1, NUDT12 (Homo sapiens, UniProt Q9BQG2).
T1 construct: His-tag (N); made in house; host or cells: E. coli BL21 (DE3) R3 pRARE2
Nature of the assay: phosphohydrolase selectivity, malachite green assay. The format is biochemical. On the procedure: (§1) The selectivity assay for TH5427 against similar pyrophosphohydrolases was performed with MTH1, NUDT9, NUDT2, NUDT12, NUDT14, NUDT15, NUDT18, ITPase, dCTPase and dUTPase[9]. All analyses were performed by malachite green assay following 30 min incubation at room temperature in reaction buffer (100 mM Tris Acetate, pH 7.5, 40 mM NaCl, 10 mM MgAc, 1 mM DTT) with 100 µM TH5427 and preferred substrates for each enzyme (4.75 nM MTH1 with 100 µM dGTP, 8 nM NUDT15 with 100 µM dGTP, 8 nM NUDT2 with 16 µM AP4A, 2 nM NUDT5 with 50 µM ADPR, 20 nM NUDT9 with 50 µM ADPR, 20 nM NUDT12 with 50 µM NADH, 2 nM NUDT14 with 50 µM ADPR, 200 nM NUDT18 with 50 µM 8-oxo-dGTP, 0.2 nM ITPase with […], 35 nM dCTPase with 35 µM dCTP, and 1 nM dUTPase with 12.5 µM dUTP). MTH1, NUDT15, NUDT18, ITPase, dCTPase and dUTPase reactions were coupled with 0.2 U/mL pyrophosphatase, while NUDT2, NUDT5, NUDT9, NUDT12, and NUDT14 reactions were coupled by bovine intestinal phosphatase (10 U/mL).

The target in assay [2] is T2, NUDT14 (Homo sapiens, UniProt O95848).
T2 construct: His-tag (N); made in house; host or cells: E. coli BL21 (DE3) R3 pRARE2
T2 sequence (O95848 1-222): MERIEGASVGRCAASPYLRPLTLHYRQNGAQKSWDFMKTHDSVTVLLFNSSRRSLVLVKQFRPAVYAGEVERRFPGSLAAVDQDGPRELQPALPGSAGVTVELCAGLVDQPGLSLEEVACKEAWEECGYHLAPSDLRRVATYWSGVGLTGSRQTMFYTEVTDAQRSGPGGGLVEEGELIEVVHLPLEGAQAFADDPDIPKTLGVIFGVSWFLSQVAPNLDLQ
The assay is described as above. The format is biochemical. The protocol: as §1

The target in assay [3] is T3, NUDT9 (Homo sapiens, UniProt Q9BW91).
T3 construct: His-tag (N); made in house; host or cells: E. coli BL21 (DE3) R3 pRARE2
T3 sequence (Q9BW91 47-350): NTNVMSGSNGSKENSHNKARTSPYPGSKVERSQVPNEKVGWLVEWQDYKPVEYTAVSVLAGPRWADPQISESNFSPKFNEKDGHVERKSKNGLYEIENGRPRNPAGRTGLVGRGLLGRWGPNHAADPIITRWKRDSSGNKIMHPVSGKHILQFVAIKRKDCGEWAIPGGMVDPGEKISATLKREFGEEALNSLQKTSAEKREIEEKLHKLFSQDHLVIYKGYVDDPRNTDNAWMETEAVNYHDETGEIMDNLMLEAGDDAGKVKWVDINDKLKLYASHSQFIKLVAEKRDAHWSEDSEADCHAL
The assay is described as above. The format is biochemical. As to conditions: 100 µM. On the procedure:
as §1

The target of assay [4] is T4, dCTPase (Homo sapiens, UniProt Q9H773).
T4 construct: His-tag (N, cleaved yes); made in house; host or cells: E. coli BL21 (DE3) R3 pRARE2
T4 sequence (Q9H773 1-170): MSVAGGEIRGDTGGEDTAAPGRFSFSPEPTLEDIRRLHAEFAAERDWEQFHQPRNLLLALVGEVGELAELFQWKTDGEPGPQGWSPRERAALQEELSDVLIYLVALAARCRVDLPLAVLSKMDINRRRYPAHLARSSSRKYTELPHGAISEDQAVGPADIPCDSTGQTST
Described as above. The format is biochemical. The protocol: as §1

For assay [5], the target named is T5, purified NUDT5 (Homo sapiens, UniProt Q9UKK9).
T5 construct: His-tag (N); made in house; host or cells: E. coli BL21 (DE3) R3 pRARE2
Nature of the assay: biochemical conversion of 32P-PAR to ATP and AMP by PARG and NUDT5 (TLC). As to conditions: 0.6 µM, with NUDT5, PARG and PPi. The protocol: ^32P-NAD-labeled PAR was prepared as follows: 5 µg of purified GST-PARP1 was incubated with 2 µg of activated calf thymus DNA and 10 mM NAD +/^32P-NAD (Perkin-Elmer) at a ratio of 1:10 for 30 min at 25 °C and brought to a final volume of 100 µL with PARP reaction buffer (50 mM Tris, pH 7.5, 50 mM NaCl, 0.5 mM DTT, 0.1% Triton X-100 and protease inhibitors)[23]. After incubation, 0.4 µg of DNase was added to obtain DNA-free probes and the reaction was precipitated using TCA. The pellet was washed with acetone, dried and resuspended in 100 µl (10 mM Tris-HCl, pH 8.0, 1 mM EDTA, 0.1 % SDS, 100 µg/mL of Proteinase K) and incubated for 1 h at 37 °C, after which radio-labeled PAR was extracted using phenol/chloroform and ethanol precipitation. The pellet was resuspended in 50 µL (10 mM Tris-HCl, pH 8.0, 1 mM EDTA) and used for subsequent biochemical analyses.
Enzymatic conversion of radiolabeled ^32P-PAR by PARG and NUDT5 was performed using purified radio-labeled PAR (as described above) with the addition of recombinant bovine PARG in PAR glycohydroxylation buffer (PGB; 10 mM HEPES, pH 7.5, 150 mM KCl, 10 mM MgCl2)[23]. Recombinant PARG was added at the beginning of the reaction to a 10 µL final volume and incubated for 1 h at 25 °C. Recombinant NUDT5, pyrophosphate and/or TH5427 (0.6 µM) were added as indicated and incubated for an additional hour. […]

Assay [6] has as its target MTH1 (Homo sapiens, UniProt P36639). Nature of the assay: CETSA melt curve for MTH1. It is filed as cell-based. More on the design: endogenous in cells. As to conditions: 20 µM. On the procedure: For CETSA experiments with cells treated in culture, 1 × 10^6 HL-60 were treated with DMSO (0.1 % v/v final) or 20 µM compound for 3 h at 37 °C and 5% CO2 in a humidified incubator. T47D^WT cells were treated instead with 80 µM TH1659, 15 µM TH5423/5424 and 1.5 µM TH5427. The cells were harvested, washed twice with PBS and resuspended in TBS with protease inhibitors, as above. Heating was identical as before, except that immediately following heating, the cell suspensions were snap frozen in a dry ice/ethanol bath and freeze-thawed, as previously, to lyse cells. Centrifugation at 20 000 × g for 20 min at 4 °C removed cellular debris and protein aggregates, and lysates were prepared for western blotting.

In general, inhibition refers to the share of the control response that was lost under treatment. Lower therefore signals a weak effect.

Molecules are shown by their SMILES.

T1 sequence (Q9BQG2 whole entry): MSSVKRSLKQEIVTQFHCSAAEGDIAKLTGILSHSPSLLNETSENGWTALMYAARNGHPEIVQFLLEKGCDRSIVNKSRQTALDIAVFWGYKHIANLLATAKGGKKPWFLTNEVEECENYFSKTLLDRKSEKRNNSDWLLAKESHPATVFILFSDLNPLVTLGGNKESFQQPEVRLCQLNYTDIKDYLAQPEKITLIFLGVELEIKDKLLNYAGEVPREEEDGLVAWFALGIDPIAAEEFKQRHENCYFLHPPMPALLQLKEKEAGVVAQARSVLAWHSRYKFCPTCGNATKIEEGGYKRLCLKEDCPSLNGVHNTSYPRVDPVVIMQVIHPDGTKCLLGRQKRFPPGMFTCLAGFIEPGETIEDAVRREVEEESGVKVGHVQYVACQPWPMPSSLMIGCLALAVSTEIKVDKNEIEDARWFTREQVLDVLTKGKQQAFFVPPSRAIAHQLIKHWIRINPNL

Regarding `Cn1c(=O)c2c(nc(N3CCNCC3)n2Cc2nnc(-c3ccc(Cl)c(Cl)c3)o2)n(C)c1=O` [TH5427], the inhibition at 100 µM was found to be 66% in assay [1], 38% in assay [2] and 39% in assay [4]. Moreover, the “effect on NUDT9-mediated hydrolysis of ADPR” value in assay [3] is given as “no effect”. In assay [5], the “synthesis of ATP and AMP from 32P-PAR” value was “inhibited the biochemical synthesis of ATP and AMP from ^32P-PAR”. The “thermal shift of MTH1 by CETSA” value in assay [6] is “no thermal shift”.

For the origin of these results see PMC5772648, “Targeted NUDT5 inhibitors block hormone signaling in breast cancer cells” (Nature Communications, 2018).
